Measurements published in patent US20070167456A1, “Mercaptoimidazoles as ccr2 receptor antagonists” (priority 2004, published 2007).

Molecular target: T1, CCR2 receptor (Homo sapiens, UniProt P41597)
T1 construct: host or cells: THP-1 (human monocytic cell line)
T1 sequence (P41597 1-360 isoform P41597-2): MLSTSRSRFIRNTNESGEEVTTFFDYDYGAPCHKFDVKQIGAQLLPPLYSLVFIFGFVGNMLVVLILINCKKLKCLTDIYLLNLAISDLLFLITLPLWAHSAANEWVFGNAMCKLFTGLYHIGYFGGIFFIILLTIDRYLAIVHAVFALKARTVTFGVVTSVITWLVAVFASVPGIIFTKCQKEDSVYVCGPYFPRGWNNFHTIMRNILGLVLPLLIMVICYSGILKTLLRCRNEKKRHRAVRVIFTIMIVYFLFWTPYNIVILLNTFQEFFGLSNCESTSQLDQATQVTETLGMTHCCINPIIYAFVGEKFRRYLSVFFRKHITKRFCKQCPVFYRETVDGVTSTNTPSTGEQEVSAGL
Experiment: Inhibition of MCP-1 induced Ca-flux in human THP-1 cells
Format: cell-based
Details: inhibition of specific MCP-1 induced Ca2+ flux, 10^-7 M hMCP-1, 20 minutes pre-incubation, FLIPR, Fluo-3 AM
Method: Inhibition of MCP-1 Induced Ca-flux in Human THP-1 Cells
MCP-1 binding to the CCR2 receptor induces a rapid and transient intracellular release of Ca^2+ (secondary messenger) in several cell lines (Charo et al, PNAS 1994). Free Ca^2+ levels can be measured using a Ca^2+ sensitive dye. When the CCR2 receptor is blocked with a CCR2 receptor antagonist, the MCP-1 induced release of Ca^2+ is inhibited.
Human THP-1 cells (monocytic cell line, ATCC TIB-202) were cultured in RPMI 1640 medium supplemented with 10% fetal calf serum (FCS), 1% L-Glutamine, penicillin (50 U/ml) and streptomycin (50 μg/ml) (all GIBCO BRL, Gent). After centrifugation, cells were loaded for 30 minutes with the Ca^2+ sensitive fluorescent dye Fluo-3 AM (Molecular Probes, Leiden, Netherlands) (2 million cells/ml in RPMI medium containing 4 μM Fluo-3 AM, 20 mM HEPES, 0.1% Bovine Serum Albumin (BSA) and 5 mM probenecid). Excess dye was removed by 3-fold washing with buffer (5 mM HEPES, 140 mM NaCl, 1 mM MgCl2, 5 mM KCl, 10 mM glucose, 2.5 mM probenecid, 1.25 mM CaCl2, 0.1% BSA; all further incubations were done in this buffer). Cells were plated at a density of 150 000 cells/well in dark-wall 96-well plates (Costar, Cambridge, Mass.) and sedimented by centrifugation (1 minute). The cells were pre-incubated for 20 minutes with test compound. Then, 10^−7 M hMCP-1 (Bachem, Bubendorf, Switserland) was added. Changes in intracellular free Ca^2+ concentration were measured using the Fluorescent Imaging Plate Reader (FLIPR, Molecular Devices, Munchen, Germany). Fluorescence was recorded every second from 10 seconds before the addition of the MCP-1 till 2 minutes after the addition (first minute: 60 records with 1 second intervals, second minute 20 records with 3 second intervals). The maximal fluorescence obtained during this time frame was used for further calculations.
Table 3 reports pIC50 values obtained in the above-described test for compounds of formula (I). pIC50 defines −log IC50 wherein IC50 is the molar concentration of the test compound which inhibits 50% of specific MCP-1 induced Ca^2+ flux.

Q: Which IC50 does the source give for CCC(c1ccc(Cl)c(Cl)c1)n1c(C(=O)OC)c(N)[nH]c1=S (stereo not drawn) [Compound 1] here?
A: 63.1 nM

Q: Which IC50 does the source give for CCC(c1ccc(Cl)c(Cl)c1)n1c(C(=O)OC)c(NC(C)=O)[nH]c1=S (stereo not drawn) [Compound 2] here?
A: 50.1 nM

Q: With CCC(c1ccc(Cl)c(Cl)c1)n1c(C(=O)OC)c(NC(=O)c2cnccn2)[nH]c1=S (stereo not drawn) [Compound 3] as the molecule, how does the IC50 read?
A: 79.4 nM

Q: For CCC(=O)Nc1[nH]c(=S)n(C(CC)c2ccc(Cl)c(Cl)c2)c1C(=O)OC (stereo not drawn) [Compound 4], which IC50 is on record?
A: 126 nM

Q: For CCC(c1ccc(Cl)c(Cl)c1)n1c(C(=O)OC)c(NC(=O)c2cccnc2)[nH]c1=S (stereo not drawn) [Compound 5], which IC50 is on record?
A: 200 nM

Q: With CCC(c1ccc(Cl)c(Cl)c1)n1c(C(=O)OC)c(NC(=O)c2ccncc2)[nH]c1=S (stereo not drawn) [Compound 6] as the molecule, how does the IC50 read?
A: 126 nM

Q: With CCC(c1ccc(Cl)c(Cl)c1)n1c(C(=O)OC)c(NC(=O)c2cc(C)on2)[nH]c1=S (stereo not drawn) [Compound 7] as the molecule, how does the IC50 read?
A: 158 nM

Q: Which IC50 does the source give for CCC(c1ccc(Cl)c(Cl)c1)n1c(C(=O)OC)c(NC(=O)c2nonc2C)[nH]c1=S (stereo not drawn) [Compound 8] here?
A: 501 nM

Q: With CCC(c1ccc(Cl)c(Cl)c1)n1c(C(=O)OC)c(NC(=O)c2cncnc2)[nH]c1=S (stereo not drawn) [Compound 9] as the molecule, how does the IC50 read?
A: 200 nM

Q: With CCC(c1ccc(Cl)c(Cl)c1)n1c(C(=O)OC)c(NC(=O)c2ccccc2)[nH]c1=S (stereo not drawn) [Compound 10] as the molecule, how does the IC50 read?
A: 200 nM

Q: With CCC(c1ccc(Cl)c(Cl)c1)n1c(C(=O)OC)c(NC(=O)c2ccco2)[nH]c1=S (stereo not drawn) [Compound 11] as the molecule, how does the IC50 read?
A: 25.1 nM

Q: For CCC(c1ccc(Cl)c(Cl)c1)n1c(C(=O)OC)c(NC(=O)c2ccccn2)[nH]c1=S (stereo not drawn) [Compound 12], which IC50 is on record?
A: 39.8 nM

Q: Which IC50 does the source give for CCC(c1ccc(Cl)c(Cl)c1)n1c(C(=O)OC)c(NC(=O)C2CCOC2)[nH]c1=S (stereo not drawn) [Compound 13] here?
A: 79.4 nM

Q: With CCC(c1ccc(Cl)c(Cl)c1)n1c(C(=O)OC)c(NC(=O)OC)[nH]c1=S (stereo not drawn) [Compound 15] as the molecule, how does the IC50 read?
A: 15.8 nM

Q: With CCC(c1ccc(Cl)c(Cl)c1)n1c(C(=O)OC)c(NC(=O)NCC(OC)OC)[nH]c1=S (stereo not drawn) [Compound 16] as the molecule, how does the IC50 read?
A: 251 nM

Q: Which IC50 does the source give for CCC(c1ccc(Cl)c(Cl)c1)n1c(C(=O)OC)c(NC(=O)NCc2ccccc2)[nH]c1=S (stereo not drawn) [Compound 17] here?
A: 631 nM

Q: For CCC(c1ccc(Cl)c(Cl)c1)n1c(C(=O)OC)c(NC(=O)N2CCOCC2)[nH]c1=S (stereo not drawn) [Compound 18], which IC50 is on record?
A: 100 nM

Q: With CCC(c1ccc(Cl)c(Cl)c1)n1c(C(=O)OC)c(NC(=O)C2CCCO2)[nH]c1=S (stereo not drawn) [Compound 19] as the molecule, how does the IC50 read?
A: 79.4 nM

Q: Which IC50 does the source give for CCC(c1ccc(Cl)c(Cl)c1)n1c(C(=O)OC)c(NC(=O)N2CCN(C)CC2)[nH]c1=S (stereo not drawn) [Compound 20] here?
A: 316 nM

Q: Which IC50 does the source give for CCC(c1ccc(Cl)c(Cl)c1)n1c(C(=O)OC)c(NC(=O)N2CCCC2)[nH]c1=S (stereo not drawn) [Compound 21] here?
A: 126 nM

Q: With CCC(c1ccc(Cl)c(Cl)c1)n1c(C(=O)OC)c(NC(=O)N2CCN(Cc3ccccc3)CC2)[nH]c1=S (stereo not drawn) [Compound 22] as the molecule, how does the IC50 read?
A: 398 nM

Q: For CCC(c1ccc(Cl)c(Cl)c1)n1c(C(=O)OC)c(NC(=O)N2CCCCC2)[nH]c1=S (stereo not drawn) [Compound 23], which IC50 is on record?
A: 158 nM

Tested on: not given
Experiment: not given
Details: not given

Q: Which melting point does the source give for CCC(c1ccc(Cl)c(Cl)c1)n1c(C(=O)OC)c(N)[nH]c1=S (stereo not drawn) [Compound 1] here?
A: 183.9 to 184 °C

Q: For CCC(c1ccc(Cl)c(Cl)c1)n1c(C(=O)OC)c(NC(=O)c2cnccn2)[nH]c1=S (stereo not drawn) [Compound 3], which melting point is on record?
A: 196.9 to 198.6 °C
